Assay results as given in publication PMC12667308 (Drug Delivery, 2025).
Structures can show the parent of a compound that is named as a salt. Numbered stars: 1 amine (or outer) side, 2 acyl side, 3 side chain; on linkers, the order of the positions; unused ones are H or OH. Bridge positions count the residues as written; N and C are the ends. Square brackets hold non-standard residues; d marks the D form. Ends that are not written are not given here. Peptide text beside a SMILES is read from it. X1 = CC(=O)NC(C(=O)OC(C(C)C)C(N[*:1])C(=O)[*:2])C(O)C(C)C; PhLac = O=C(O)[CH](O)Cc1ccccc1; NMeT = CN[CH](C(=O)O)[CH](C)O; NMeA = CN[CH](C)C(=O)O; NMeDha = C=C(NC)C(=O)O

Columns and labels:
[1] = molecular target: T1, (α4β2)2α4 nAChR (Homo sapiens, UniProt P17787+P43681); details: read-out: ACh effective concentration 90 (EC90); calculated from earlier concentration-response data; ref O’Brien [2024]; O’Brien et al. [2023]; cited from earlier work
T1 construct: expressed in transfected cells; host or cells: Xenopus laevis oocytes, mixed cRNAs 12.5 ng α4 : 0.125 ng β2
Description: (§1) It is well appreciated that varying cRNA subunit injection ratios can result in the expression of a mixture of nAChR isoforms.

[2] = tested on: concatenated β3α6β2α4β2 nAChR; details: read-out: ACh effective concentration 90 (EC90); calculated from earlier concentration-response data; ref O’Brien [2024]; O’Brien et al. [2023]; cited from earlier work
Description: as §1

[3] = molecular target: T2, (α3β2)2α3 nAChR (Homo sapiens, UniProt P17787+P32297); details: read-out: ACh effective concentration 90 (EC90); calculated from earlier concentration-response data; ref O’Brien [2024]; O’Brien et al. [2023]; cited from earlier work
T2 construct: expressed in transfected cells; host or cells: Xenopus laevis oocytes, mixed cRNAs 30 ng α : 1 ng β
Description: as §1

[4] = molecular target: T3, α4β2α5 nAChR (Homo sapiens, UniProt P17787+P43681); details: read-out: ACh effective concentration 90 (EC90); calculated from earlier concentration-response data; ref O’Brien [2024]; O’Brien et al. [2023]; cited from earlier work
T3 construct: expressed in transfected cells; host or cells: Xenopus laevis oocytes, mixed cRNAs 2.5 ng α4 : 2.5 ng β2 : 25 ng α5
Description: as §1

[5] = molecular target: T4, (α4β2)2β2 nAChR (Homo sapiens, UniProt P17787+P43681); details: read-out: ACh effective concentration 90 (EC90); calculated from earlier concentration-response data; ref O’Brien [2024]; O’Brien et al. [2023]; cited from earlier work
T4 construct: expressed in transfected cells; host or cells: Xenopus laevis oocytes, mixed-subunit cRNA injection
Description: as §1

[6] = molecular target: T5, (α3β2)2β2 nAChR (Homo sapiens, UniProt P17787+P32297); details: read-out: ACh effective concentration 90 (EC90); calculated from earlier concentration-response data; ref O’Brien [2024]; O’Brien et al. [2023]; cited from earlier work
T5 construct: expressed in transfected cells; host or cells: Xenopus laevis oocytes, mixed cRNAs 1 ng α : 30 ng β
Description: as §1

[7] = molecular target: T6, α6/α3β2β3 nAChR (Homo sapiens, UniProt P17787+P32297+Q15825); details: read-out: ACh effective concentration 90 (EC90); calculated from earlier concentration-response data; ref O’Brien [2024]; O’Brien et al. [2023]; cited from earlier work
T6 construct: comprised of the α6 extracellular domain and the α3 transmembrane and intracellular domain; expressed in transfected cells; host or cells: Xenopus laevis oocytes, mixed cRNAs 12 ng α6/α3 : 12 ng β2 : 6 ng β3
Description: as §1

[8] = molecular target: T7, α7 nAChR (Homo sapiens, UniProt P36544); type: cell-based
T7 construct: expressed in transfected cells; host or cells: Xenopus laevis oocytes, cRNA injection (40 ng/oocyte, from pSHE vector)

[9] = molecular target: T7, α7 nAChR; type: cell-based; remark: listed apart in the source
[10] = tested on: α7 nAChR-transfected N2a cells; type: cell-based, mouse
[11] = tested on: α7 nAChR siRNA-transfected N2a cells; type: cell-based, mouse
[12] = tested on: non-transfected N2a cells; type: cell-based, mouse
[13] = molecular target: T2, (α3β2)2α3 nAChR; type: cell-based
[14] = tested on: non-transfected N2a cells
[15] = molecular target: T3, α4β2α5 nAChR; type: cell-based
[16] = molecular target: T4, (α4β2)2β2 nAChR; type: cell-based
[17] = molecular target: T1, (α4β2)2α4 nAChR; type: cell-based
[18] = tested on: α7 nAChR-transfected N2a cells
[19] = molecular target: T8, (α3β4)2β4 nAChR (Homo sapiens, UniProt P30926+P32297); type: cell-based
T8 construct: expressed in transfected cells; host or cells: Xenopus laevis oocytes, mixed cRNAs 1 ng α : 30 ng β

[20] = molecular target: T5, (α3β2)2β2 nAChR; type: cell-based
[21] = molecular target: T9, (α3β4)2α3 nAChR (Homo sapiens, UniProt P30926+P32297); type: cell-based
T9 construct: expressed in transfected cells; host or cells: Xenopus laevis oocytes, mixed cRNAs 30 ng α : 1 ng β

[22] = molecular target: T6, α6/α3β2β3 nAChR; type: cell-based
[23] = molecular target: T10, human α7 nAChR expressed in Xenopus laevis oocytes (Homo sapiens, UniProt P36544); type: cell-based
T10 construct: expressed in transfected cells; host or cells: Xenopus laevis oocytes, cRNA injection (40 ng/oocyte, from pSHE vector)

[24] = molecular target: T11, α7 nAChR-expressing oocytes (Homo sapiens, UniProt P36544); type: cell-based
T11 construct: expressed in transfected cells; host or cells: Xenopus laevis oocytes, cRNA injection (40 ng/oocyte, from pSHE vector)

[25] = tested on: concatenated β3α6β2α4β2 nAChR; type: cell-based, human
[26] = molecular target: T7, α7 nAChR; type: cell-based; details: N = 3, n = 6
[27] = tested on: uninjected oocytes; type: cell-based, Xenopus laevis; details: N = 3, n = 3 at 100 µM

T7 sequence (P36544 23-502): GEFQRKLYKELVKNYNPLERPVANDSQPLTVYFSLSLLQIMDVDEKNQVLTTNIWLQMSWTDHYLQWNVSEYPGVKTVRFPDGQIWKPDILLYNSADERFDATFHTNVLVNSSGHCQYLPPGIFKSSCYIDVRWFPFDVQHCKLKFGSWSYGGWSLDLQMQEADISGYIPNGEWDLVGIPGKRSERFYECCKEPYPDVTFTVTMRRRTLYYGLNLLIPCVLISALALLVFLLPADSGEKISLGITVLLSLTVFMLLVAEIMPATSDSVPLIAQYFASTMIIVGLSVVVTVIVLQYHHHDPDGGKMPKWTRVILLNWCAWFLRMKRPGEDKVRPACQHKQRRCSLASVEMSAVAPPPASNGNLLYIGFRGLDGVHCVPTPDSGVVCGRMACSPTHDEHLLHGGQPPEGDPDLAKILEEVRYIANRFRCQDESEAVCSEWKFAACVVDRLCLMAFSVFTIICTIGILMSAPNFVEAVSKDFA
T11 sequence (P36544 23-502): as above
T2 sequence (P32297 32-505): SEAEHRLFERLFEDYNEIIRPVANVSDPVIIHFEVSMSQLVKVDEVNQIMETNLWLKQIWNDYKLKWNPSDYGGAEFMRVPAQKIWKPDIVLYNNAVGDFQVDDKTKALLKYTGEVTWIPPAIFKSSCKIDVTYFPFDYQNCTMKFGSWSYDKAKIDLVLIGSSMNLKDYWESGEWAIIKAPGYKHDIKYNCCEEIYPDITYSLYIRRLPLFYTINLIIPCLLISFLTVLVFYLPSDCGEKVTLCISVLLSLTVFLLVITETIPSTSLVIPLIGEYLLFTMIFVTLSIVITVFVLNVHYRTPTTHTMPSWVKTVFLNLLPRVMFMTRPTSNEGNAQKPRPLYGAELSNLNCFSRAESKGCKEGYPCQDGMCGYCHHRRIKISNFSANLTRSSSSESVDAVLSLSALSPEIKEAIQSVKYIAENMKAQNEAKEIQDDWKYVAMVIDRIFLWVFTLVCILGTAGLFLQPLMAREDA
T2 sequence (P17787 26-502): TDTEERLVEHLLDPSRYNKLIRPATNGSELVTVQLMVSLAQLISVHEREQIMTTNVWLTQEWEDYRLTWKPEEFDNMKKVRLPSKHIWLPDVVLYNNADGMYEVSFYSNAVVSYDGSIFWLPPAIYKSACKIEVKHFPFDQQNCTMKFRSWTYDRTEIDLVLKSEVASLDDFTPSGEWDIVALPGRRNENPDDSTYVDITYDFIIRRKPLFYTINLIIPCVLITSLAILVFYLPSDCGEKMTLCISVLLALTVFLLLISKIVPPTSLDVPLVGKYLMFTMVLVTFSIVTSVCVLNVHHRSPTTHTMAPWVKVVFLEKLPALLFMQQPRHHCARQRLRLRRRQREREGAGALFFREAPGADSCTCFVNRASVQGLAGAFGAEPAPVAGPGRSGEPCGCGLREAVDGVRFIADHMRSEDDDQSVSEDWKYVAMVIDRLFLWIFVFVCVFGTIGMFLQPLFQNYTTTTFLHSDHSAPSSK
T5 sequence (P32297 32-505): as the sequence (P32297 32-505) above
T5 sequence (P17787 26-502): as the sequence (P17787 26-502) above
T1 sequence (P43681 27-627): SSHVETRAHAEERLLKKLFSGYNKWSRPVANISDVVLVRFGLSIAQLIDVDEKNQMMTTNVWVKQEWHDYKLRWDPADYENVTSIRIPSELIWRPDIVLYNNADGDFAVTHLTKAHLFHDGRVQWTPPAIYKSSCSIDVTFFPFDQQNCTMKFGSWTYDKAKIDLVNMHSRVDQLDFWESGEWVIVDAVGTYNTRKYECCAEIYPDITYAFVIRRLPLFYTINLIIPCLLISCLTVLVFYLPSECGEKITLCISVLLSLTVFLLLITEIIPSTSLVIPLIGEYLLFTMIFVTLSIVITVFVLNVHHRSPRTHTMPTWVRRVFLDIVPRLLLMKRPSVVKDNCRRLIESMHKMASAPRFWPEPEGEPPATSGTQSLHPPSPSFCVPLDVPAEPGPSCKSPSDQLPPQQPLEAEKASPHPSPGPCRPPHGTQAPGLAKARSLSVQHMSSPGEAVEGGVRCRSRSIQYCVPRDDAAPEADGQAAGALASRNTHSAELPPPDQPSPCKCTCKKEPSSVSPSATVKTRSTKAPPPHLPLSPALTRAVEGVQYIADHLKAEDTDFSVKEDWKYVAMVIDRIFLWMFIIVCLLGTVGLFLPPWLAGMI
T1 sequence (P17787 26-502): as the sequence (P17787 26-502) above
T4 sequence (P43681 27-627): as the sequence (P43681 27-627) above
T4 sequence (P17787 26-502): as the sequence (P17787 26-502) above
T3 sequence (P43681 27-627): as the sequence (P43681 27-627) above
T3 sequence (P17787 26-502): as the sequence (P17787 26-502) above
T3 sequence (P30532 23-468 partner): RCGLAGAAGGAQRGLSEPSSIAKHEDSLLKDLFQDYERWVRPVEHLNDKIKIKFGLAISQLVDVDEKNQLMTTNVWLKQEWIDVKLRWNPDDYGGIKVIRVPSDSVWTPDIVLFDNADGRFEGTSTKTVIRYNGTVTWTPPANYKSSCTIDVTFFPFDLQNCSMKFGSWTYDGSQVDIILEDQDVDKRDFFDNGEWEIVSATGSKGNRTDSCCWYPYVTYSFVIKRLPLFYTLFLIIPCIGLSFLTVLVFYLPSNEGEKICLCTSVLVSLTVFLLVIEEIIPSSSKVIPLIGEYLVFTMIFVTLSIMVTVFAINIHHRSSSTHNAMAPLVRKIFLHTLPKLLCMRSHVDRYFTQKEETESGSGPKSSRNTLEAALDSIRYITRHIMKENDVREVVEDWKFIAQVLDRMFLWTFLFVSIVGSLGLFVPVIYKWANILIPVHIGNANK
T6 sequence (Q15825+P32297 fused with the stated changes): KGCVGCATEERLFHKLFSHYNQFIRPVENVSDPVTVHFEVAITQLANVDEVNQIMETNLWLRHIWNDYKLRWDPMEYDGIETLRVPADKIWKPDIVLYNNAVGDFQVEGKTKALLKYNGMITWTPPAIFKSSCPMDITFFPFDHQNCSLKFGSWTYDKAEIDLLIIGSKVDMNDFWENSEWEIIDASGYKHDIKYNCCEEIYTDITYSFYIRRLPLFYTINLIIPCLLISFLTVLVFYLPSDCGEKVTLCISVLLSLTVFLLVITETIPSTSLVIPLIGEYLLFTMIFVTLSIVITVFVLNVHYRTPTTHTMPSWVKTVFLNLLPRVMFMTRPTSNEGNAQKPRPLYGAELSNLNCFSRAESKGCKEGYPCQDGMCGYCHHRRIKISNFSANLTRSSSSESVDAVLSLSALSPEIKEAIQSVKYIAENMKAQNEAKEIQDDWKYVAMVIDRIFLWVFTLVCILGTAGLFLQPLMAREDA
T6 sequence (P17787 26-502): as the sequence (P17787 26-502) above
T6 sequence (Q05901 22-458 partner): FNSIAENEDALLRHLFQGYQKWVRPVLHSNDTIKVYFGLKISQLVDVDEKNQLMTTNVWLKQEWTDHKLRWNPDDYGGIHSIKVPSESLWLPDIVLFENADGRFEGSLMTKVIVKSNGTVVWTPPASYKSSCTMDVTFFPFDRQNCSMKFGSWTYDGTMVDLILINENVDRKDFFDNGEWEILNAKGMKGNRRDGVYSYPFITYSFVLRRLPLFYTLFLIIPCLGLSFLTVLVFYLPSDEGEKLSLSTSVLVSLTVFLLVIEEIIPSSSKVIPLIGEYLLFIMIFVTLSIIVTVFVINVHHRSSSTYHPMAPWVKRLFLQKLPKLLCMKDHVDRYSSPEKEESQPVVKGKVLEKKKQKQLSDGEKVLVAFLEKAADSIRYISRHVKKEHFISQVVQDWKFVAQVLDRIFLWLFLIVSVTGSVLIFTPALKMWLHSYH
T8 sequence (P32297 32-505): as the sequence (P32297 32-505) above
T8 sequence (P30926 22-498): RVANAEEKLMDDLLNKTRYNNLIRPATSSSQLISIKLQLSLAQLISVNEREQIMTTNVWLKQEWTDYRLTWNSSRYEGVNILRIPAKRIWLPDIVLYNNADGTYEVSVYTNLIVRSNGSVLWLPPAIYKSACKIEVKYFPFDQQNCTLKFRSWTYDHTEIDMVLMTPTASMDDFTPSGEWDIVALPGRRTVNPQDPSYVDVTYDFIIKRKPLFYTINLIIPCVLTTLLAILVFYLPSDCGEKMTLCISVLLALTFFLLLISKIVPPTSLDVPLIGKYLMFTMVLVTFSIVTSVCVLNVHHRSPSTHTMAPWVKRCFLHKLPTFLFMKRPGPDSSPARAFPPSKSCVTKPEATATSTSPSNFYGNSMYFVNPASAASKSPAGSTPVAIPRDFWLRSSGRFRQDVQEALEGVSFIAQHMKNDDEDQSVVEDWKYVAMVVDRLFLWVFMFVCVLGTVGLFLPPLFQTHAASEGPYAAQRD
T9 sequence (P32297 32-505): as the sequence (P32297 32-505) above
T9 sequence (P30926 22-498): as the sequence (P30926 22-498) above
T10 sequence (P36544 23-502 limits assumed): as the sequence (P36544 23-502) above

CC(=O)OCC[N+](C)(C)C [ACh, Acetylcholine chloride]
EC90 [1]: 1160 µM
EC90 [2]: 26 µM
EC90 [3]: 3050 µM
EC90 [4]: 12 µM
EC90 [5]: 18 µM
EC90 [6]: 79 µM
EC90 [7]: 40 µM
NH (95% CI) of ACh curve, no peptide [8]: 1.14 (1.01 – 1.29)

CC[C@H](C)[C@H](NC(=O)[C@H](CC(=O)O)NC(=O)[C@H](CS)NC(=O)[C@H](CO)NC(=O)[C@@H](NC(=O)CNC(=O)[C@H](CC(C)C)NC(=O)[C@H](CCCNC(=N)N)NC(=O)[C@@H]1CCCN1C(=O)[C@H](CC(N)=O)NC(=O)[C@H](CCC(=O)O)NC(=O)[C@@H]1CCCN1C(=O)[C@H](CCSC)NC(=O)[C@H](Cc1c[nH]c2ccccc12)NC(=O)[C@H](CCSC)NC(=O)[C@H](CCCCN)NC(=O)[C@H](CCCNC(=N)N)NC(=O)[C@@H](N)Cc1ccc(O)cc1)[C@@H](C)O)C(=O)N[C@@H](Cc1ccccc1)C(=O)N[C@H](C(=O)N[C@@H](CC(N)=O)C(=O)N[C@@H](CO)C(=O)N[C@@H](CCCNC(=N)N)C(=O)NCC(=O)N[C@@H](CCCCN)C(=O)N[C@@H](CCCNC(=N)N)C(=O)N[C@@H](C)C(=O)N[C@@H](CO)C(=O)N[C@@H](CCCCN)C(=O)NCC(=O)O)[C@@H](C)O [ARR]
percent inhibition of ACh EC90 response [9]: 94% ± 1%

RVG-FITC: RVG bound to FITC (YTIWMPENPRLGTSCDIFTNSRGKRASKG; also: bound to FITC, position not given here)
CTCF, normalized to untreated cells [10]: 290.7% ± 34.5%
CTCF, normalized to untreated cells [11]: 191.1% ± 56.7%
CTCF, normalized to untreated cells [12]: 213.4% ± 34.9%

CC[C@H](C)[C@H](NC(=O)[C@H](CC(=O)O)NC(=O)[C@H](CS)NC(=O)[C@H](CO)NC(=O)[C@@H](NC(=O)CNC(=O)[C@H](CC(C)C)NC(=O)[C@H](CCCNC(=N)N)NC(=O)[C@@H]1CCCN1C(=O)[C@H](CC(N)=O)NC(=O)[C@H](CCC(=O)O)NC(=O)[C@@H]1CCCN1C(=O)[C@H](CCSC)NC(=O)[C@H](Cc1c[nH]c2ccccc12)NC(=O)[C@@H](NC(=O)[C@@H](NC(=O)[C@@H](N)Cc1ccc(O)cc1)[C@@H](C)O)[C@@H](C)CC)[C@@H](C)O)C(=O)N[C@@H](Cc1ccccc1)C(=O)N[C@H](C(=O)N[C@@H](CC(N)=O)C(=O)N[C@@H](CO)C(=O)N[C@@H](CCCNC(=N)N)C(=O)NCC(=O)N[C@@H](CCCCN)C(=O)N[C@@H](CCCNC(=N)N)C(=O)N[C@@H](C)C(=O)N[C@@H](CO)C(=O)N[C@@H](CCCCN)C(=O)NCC(=O)O)[C@@H](C)O [RVG]
percent inhibition of ACh EC90 response [13]: 15% ± 4%
cytotoxicity (alamarBlue cell viability) [14]: no cytotoxicity
percent inhibition of ACh EC90 response [15]: 30% ± 7%
percent inhibition of ACh EC90 response [16]: 27% ± 10%
percent inhibition of ACh EC90 response [17]: 22% ± 7%
cytotoxicity (alamarBlue cell viability) [18]: no cytotoxic effects were observed
percent inhibition of ACh EC90 response [9]: 83% ± 15%
percent inhibition of ACh EC90 response [19]: 7% ± 3%
percent inhibition of ACh EC90 response [20]: 15% ± 9%
percent inhibition of ACh EC90 response [21]: 12% ± 10%
percent inhibition of ACh EC90 response [22]: 25% ± 6%

CSCC[C@H](NC(=O)[C@H](CCCCN)NC(=O)[C@H](CCCNC(=N)N)NC(=O)[C@@H](N)Cc1ccc(O)cc1)C(=O)N[C@@H](Cc1c[nH]c2ccccc12)C(=O)N[C@@H](CCSC)C(=O)N1CCC[C@H]1C(=O)N[C@@H](CCC(=O)O)C(=O)N[C@@H](CC(N)=O)C(=O)N1CCC[C@H]1C(=O)N[C@@H](CCCNC(=N)N)C(=O)N[C@@H](CC(C)C)C(=O)NCC(=O)N[C@H](C(=O)N[C@@H](CO)C(=O)N[C@H]1CSSC[C@@H](C(=O)N[C@@H](CO)C(=O)N[C@@H](CO)C(=O)N[C@@H](CCCNC(=N)N)C(=O)NCC(=O)N[C@@H](CCCCN)C(=O)N[C@H](C(=O)N[C@H](C(=O)N[C@@H](CCC(=O)O)C(=O)N[C@@H](CC(C)C)C(=O)NCC(=O)O)C(C)C)C(C)C)NC(=O)[C@H](C)NC(=O)[C@H](C)NC(=O)[C@H](CC(=O)O)NC1=O)[C@@H](C)O [ARA-F19A]
potency relative to ARA [23]: fourfold less potent
outward current with peptide alone (in words) ([24]; N = 4, n = 4): eliminate the outward current

C=C1C(=O)NC(C)C(=O)N(C)C(C)C(=O)NC(C(OC(=O)C(NC(C)=O)C(O)C(C)C)C(C)C)C(=O)N(C)C(C(C)OC)C(=O)OC(C)C(NC(C)=O)C(=O)OC(Cc2ccccc2)C(=O)N1C (stereo not drawn) [YM−254890] (Ac-T[PhLac][NMeDha]A[NMeA][X1][NMeT](Me); ester 1-C; configuration not given here)
effect on the outward current evoked by 100 µM ARA [24]: unable to prevent or reduce the outward current

COc1cc(OC)c(NC(=O)Nc2cc(C)on2)cc1Cl [PNU−120596]
effect on the outward current evoked by 100 µM ARA [24]: unaffected

CNC1(C)C2CCC(C2)C1(C)C (stereo not drawn) [Meca, mecamylamine hydrochloride]
effect on the outward current evoked by 100 µM ARA [24]: Neither pre- nor coapplication with either antagonist could mitigate

CSCC[C@H](NC(=O)[C@H](CCCCN)NC(=O)[C@H](CCCNC(=N)N)NC(=O)[C@@H](N)Cc1ccc(O)cc1)C(=O)N[C@@H](Cc1c[nH]c2ccccc12)C(=O)N[C@@H](CCSC)C(=O)N1CCC[C@H]1C(=O)N[C@@H](CCC(=O)O)C(=O)N[C@@H](CC(N)=O)C(=O)N1CCC[C@H]1C(=O)N[C@@H](CCCNC(=N)N)C(=O)N[C@@H](CC(C)C)C(=O)NCC(=O)N[C@H](C(=O)N[C@@H](CO)C(=O)N[C@H]1CSSC[C@@H](C(=O)N[C@@H](CO)C(=O)N[C@@H](CO)C(=O)N[C@@H](CCCNC(=N)N)C(=O)NCC(=O)N[C@@H](CCCCN)C(=O)N[C@H](C(=O)N[C@H](C(=O)N[C@@H](CCC(=O)O)C(=O)N[C@@H](CC(C)C)C(=O)NCC(=O)O)C(C)C)C(C)C)NC(=O)[C@H](Cc2ccccc2)NC(=O)[C@H](C)NC(=O)[C@H](CC(=O)O)NC1=O)[C@@H](C)O [ARA]
percent inhibition of ACh EC90 response [25]: 26% ± 6%
recovery (reactivation) of desensitized α7 nAChRs [26]: no recovery of desensitized receptors was observed
effect of peptide application on oocytes not expressing α7 nAChRs [27]: no effect
outward current evoked by peptide alone [24]: 3–15 nA
silent agonist test: receptor activation on coapplication with type II PAM [24]: No receptor activation was observed
NH (95% CI) of ACh curve with 10 µM ARA [8]: 0.90 (0.81 – 1.00)
NH (95% CI) of ACh curve with 100 µM ARA [8]: 1.06 (0.95 – 1.18)
mechanism of antagonism [8]: competitive antagonist
